Experiments:
Syk = Syk (Homo sapiens (Human), UniProt P43405); assay: Syk enzyme inhibition, Z-LYTE FRET; type: biochemical
Method: (§1) The enzyme inhibitory activities of compounds disclosed herein are determined by FRET using synthetic peptides labelled with both donor and acceptor fluorophores (Z-LYTE, Invitrogen Ltd., Paisley, UK).
The inhibitory activities of compounds of the invention against c-Src and Syk enzymes (Invitrogen), are evaluated in a similar fashion to that described hereinabove. The relevant enzyme (3000 ng/mL or 2000 ng/mL respectively, 2.5 μL) is incubated with the test compound (either 4 μg/mL, 0.4 μg/mL, 0.04 μg/mL, or 0.004 μg/mL, 2.5 μL each) for 2 hr at RT. The FRET peptides (8 μM. 2.5 μL), and appropriate ATP solutions (2.5 μL, 800 μM for c-Src, and 60 μM ATP for Syk) are then added to the enzymes/compound mixtures and incubated for 1 hr. Development reagent (protease, 5 μL) is added for 1 hr prior to detection in a fluorescence microplate reader (Varioskan® Flash, ThermoFisher Scientific).
(§2) In all cases, the site-specific protease cleaves non-phosphorylated peptide only and eliminates the FRET signal. Phosphorylation levels of each reaction are calculated using the ratio of coumarin emission (donor) over fluorescein emission (acceptor), for which high ratios indicate high phosphorylation and low ratios indicate low phosphorylation levels. The percentage inhibition of each reaction is calculated relative to non-inhibited control and the 50% inhibitory concentration (IC50 value) is then calculated from the concentration-response curve.

[1] = system: intestinal mucosa biopsies from the inflamed regions of the colon of ulcerative colitis patients; assay: Human biopsy assay (ex-vivo cytokine release); type: cell-based; settings: 1 μg/mL, 24 hours; for Cytokine (IL-1β, IL-6 and IL-8) release compared to the DMSO control: biopsies from ulcerative colitis patients; for IL-1β release from biopsies of UC patients / IL-6 release from biopsies of UC patients / IL-8 release from biopsies of UC patients: relative to DMSO control = 100%
Method: Intestinal mucosa biopsies are obtained from the inflamed regions of the colon of IBD patients. The biopsy material is cut into small pieces (2-3 mm) and placed on steel grids in an organ culture chamber at 37° C. in a 5% CO2/95% O2 atmosphere in serum-free media. DMSO control or test compounds at the desired concentration are added to the tissue and incubated for 24 hr in the organ culture chamber. The supernatant is harvested for determination of IL-6, IL-8, IL-1P and TNFα levels by R&D ELISA.
Percentage inhibition of cytokine release by the test compounds is calculated relative to the cytokine release determined for the DMSO control (100%).

p38 MAPKα = p38 MAPKα (Homo sapiens (Human), UniProt Q16539); assay: p38 MAPKα enzyme inhibition (Method 2), Z-LYTE FRET; type: biochemical
Method: as §1
The inhibitory activities of test compounds against the p38 MAPKα isoform (MAPK14: Invitrogen), are evaluated indirectly by determining the level of activation/phosphorylation of the down-stream molecule, MAPKAP-K2. The p38 MAPKα protein (80 ng/mL, 2.5 μL) is mixed with the test compound (2.5 μL of either 4 μg/mL, 0.4 μg/mL, 0.04 μg/mL or 0.004 μg/mL) for 2 hr at RT. […] The mixture is incubated for 1 hr at RT. Development reagent (protease, […]) is added for 1 hr prior to detection in a fluorescence microplate reader (Varioskan® Flash, ThermoFisher Scientific).
This method follows the same steps as Method 1 above, but utilises a higher concentration of the p38 MAPKα protein (2.5 μL of 200 ng/mL protein instead of 2.5 μL of 80 ng/mL protein) for mixing with the test compound.
as §2

p38 MAPKα, sequence (Q16539 whole entry): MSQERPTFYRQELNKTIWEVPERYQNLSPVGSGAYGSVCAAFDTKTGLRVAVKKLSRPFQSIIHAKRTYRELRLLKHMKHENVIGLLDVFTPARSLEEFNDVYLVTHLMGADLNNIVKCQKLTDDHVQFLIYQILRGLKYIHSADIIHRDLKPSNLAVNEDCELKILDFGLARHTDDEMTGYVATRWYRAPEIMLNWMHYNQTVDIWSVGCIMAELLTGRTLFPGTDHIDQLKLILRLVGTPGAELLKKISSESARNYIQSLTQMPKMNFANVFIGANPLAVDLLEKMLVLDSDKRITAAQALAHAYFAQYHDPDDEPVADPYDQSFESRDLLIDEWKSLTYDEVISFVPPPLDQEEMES

IC50 (Syk)	IC50 (p38 MAPKα)	Compound	Cytokine (IL-1β, IL-6 and IL-8) release compared to the DMSO control [1]	IL-1β release from biopsies of UC patients [1]	IL-6 release from biopsies of UC patients [1]	IL-8 release from biopsies of UC patients [1]
50 nM	380 nM	C#CC(C)(C)c1cc(NC(=O)Nc2ccc(Oc3ccnc(Nc4cc(C)c5[nH]ncc5c4)n3)c3ccccc23)n(-c2ccc(C)cc2)n1 [Example 2, 1-(4-((2-((7-Methyl-1H-indazol-5-yl)amino)pyrimidin-4-yl)oxy)naphthalen-1-yl)-3-(3-(2-methylbut-3-yn-2-yl)-1-(p-tolyl)-1H-pyrazol-5-yl)urea]	significantly inhibited	20 ± 13%	37 ± 41%	22 ± 21%
61 nM	152 nM	C#CC(C)(C)c1cc(NC(=O)Nc2ccc(Oc3ccnc(Nc4cc(OC)cc(OCCOCCOCCOC)c4)n3)c3ccccc23)n(-c2ccc(C)cc2)n1 [Example 13, 1-(4-((2-((3-Methoxy-5-(2-(2-(2-methoxyethoxy)ethoxy)ethoxy)phenyl)amino)pyrimidin-4-yl)oxy)naphthalen-1-yl)-3-(3-(2-methylbut-3-yn-2-yl)-1-(p-tolyl)-1H-pyrazol-5-yl)urea]	significantly inhibited	3 ± 3%	37 ± 52%	7 ± 8%
